Like-named read-outs stand apart in the source and are kept apart here. No end group written: not given here.
Biological target: T1, GPR103 V129^3.36A (Homo sapiens, UniProt Q96P65, V129A)
T1 construct: we used human full-length QRFPR-encoding plasmids; expressed in transfected cells; host or cells: HEK293 cells, pCAGGS vector
T1 sequence (Q96P65 1-431 V129A): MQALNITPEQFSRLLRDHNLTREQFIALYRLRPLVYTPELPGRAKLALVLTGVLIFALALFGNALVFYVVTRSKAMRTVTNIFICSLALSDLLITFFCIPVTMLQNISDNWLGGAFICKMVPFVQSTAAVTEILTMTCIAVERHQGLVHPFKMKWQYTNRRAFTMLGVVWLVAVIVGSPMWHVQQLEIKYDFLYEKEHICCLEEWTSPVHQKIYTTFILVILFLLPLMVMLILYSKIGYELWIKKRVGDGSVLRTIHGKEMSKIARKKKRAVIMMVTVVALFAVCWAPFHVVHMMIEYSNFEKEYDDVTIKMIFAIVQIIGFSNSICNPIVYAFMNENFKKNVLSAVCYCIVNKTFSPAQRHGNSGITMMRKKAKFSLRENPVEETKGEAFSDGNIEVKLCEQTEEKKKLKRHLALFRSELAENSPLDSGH
Experiment: TGFα shedding assay; Exp. level WT (1:20)
Type: cell-based
Protocol: For the TGFα shedding assay and the flow cytometry analysis, we used human full-length QRFPR-encoding plasmids. Specifically, GPR103 was N-terminally modified with an HA signal sequence followed by a FLAG epitope and then a flexible linker ([…]; the FLAG epitope is underlined) and inserted into the pCAGGS vector. Plasmid encoding GPR103 mutants were generated using Quickchange Site-Directed Mutagensis kit (Agilent).
The TGFα shedding assay was performed as described previously with minor modifications. Plasmid transfection was performed in a 6-well plate with a mixture of 500 ng (per well in a 6-well plate) AP-TGFα-encoding plasmid and 200 ng GPR103-encoding plasmid. After 1-day culture, the transfected cells were harvested by trypsinization, pelleted by centrifugation at 190 × g for 5 min, and washed once with 5 mM HEPES (pH 7.4)-containing Hank’s Balanced Salt Solution (HBSS). After centrifugation, the cells were resuspended in 8 mL of the HEPES-containing HBSS. The cell suspension was seeded in a 96-well culture plate (cell plate) at a volume of 90 μL (per well hereafter) and incubated in a 37 °C incubator with 5% CO2 for 30 min. […] After spinning the cell plates at 190 × g for 2 min, 80 μL of conditioned media was transferred to an empty 96-well plate (conditioned media (CM) plate). Then, 80 μL of AP reaction solution (10 mM p-nitrophenylphosphate (p-NPP), 120 mM Tris-HCl (pH 9.5), 40 mM NaCl, and 10 mM MgCl2) was dispensed into the cell plates and the CM plates. Absorbance at 405 nm of the plates was measured using a microplate reader (SpectraMax 340 PC384, Molecular Devices) before and after 1-h incubation at room temperature. Ligand-induced AP-TGFα release was calculated by subtracting spontaneous AP-TGFα release signal from ligand-induced AP-TGFα release signal. The AP-TGFα release signals were fitted to a four-parameter sigmoidal concentration–response curve, using the Prism 10 software (GraphPad Prism). For each replicate experiment, the pEC50 parameter (negative logarithmic values of EC50 values) of the individual GPR103 mutants were normalized to that of the wild-type GPR103 performed in parallel, and resulting ∆pEC50 values were used to denote ligand response activity of the mutants. […]
Exp. le vel: WT (1:5 0)Exp. le vel: WT (1:5 0)Exp. le vel: WT (1:5 0)Exp. le vel: WT (1:2 0)Exp. le vel: WT (1:2 0)Exp. le vel: WT (1:1 0) […]
L1 4N - t e r mA F2 5N - t e r mA I 2 6N - t e r mA Y 2 9N - t e r mA C 9 82 .5 7A T10 22 .6 1A Exp . l eve l: WT (1 :5)Exp . l evel : >WT (1 :1)Exp. le vel: WT (1:2 0)Exp. le vel: WT (1:2 0)Exp. le vel: WT (1:5 0)Exp . l eve l: WT (1 :1) […]
Exp. le vel: WT (1:1 0)Exp. le vel: WT (1:2 0) C 1 1 83 .2 5AExp. le vel: WT (1:5 0)Exp. le vel: WT (1:5 0)Exp. le vel: WT (1:2 0)Exp . l eve l: WT (1 :5) […]
Exp. le vel: WT (1:5 0)Exp. le vel: WT (1:1 0)Exp. le vel: WT (1:5 0) E203ECL2AExp . l evel : >WT (1 :1)Exp. le vel: WT (1:5 0)Exp. le vel: WT (1:5 0) […]
Exp . l eve l: WT (1 :1) F28Exp. le vel: WT (1:5 0) C 2 8 56 .4 7AExp. le vel: WT (1:2 0) WExp. le vel: WT (1:2 0) F28Exp. le vel: WT (1:5 0)Exp . l evel : >WT (1 :1) […]
Exp. le vel: WT (1:5 0)Exp. le vel: WT (1:5 0) C 3 2 77 .4 8AExp . l eve l: WT (1 :5)Exp . l evel : >WT (1 :1)Exp . l evel : >WT (1 :1) […]
Suppl eme nt ary Figure 1 | Mutational analysis of GPR103. […]
mutants. Data are presented as mean values ± SEM, normally n=3-5; dots), each performed in triplicate. b-d Cell-surface expression (b) and QRFP26-in-duced activation of GPR103 (c, d) were analyzed by the flow cytometry and the TGFα shedding assay, respectively. From the concentration–response curves (a), Emax (c) and ΔpEC50 (d) values relative to the wild type were calculated. Colors in the mutant bars indicate an expression level matching to that of titrated wild type. Statistical analyses were performed using the ordinary one-way ANOVA followed by Dunnett tests with the expression-matched […]

Emax (Exp. #1): 92.74 % WT
Emax (Exp. #2): 87.58 % WT
Emax (Exp. #3): 97.49 % WT
Emax (mean, read-out: Emax): 92.6%
EC50 (n = 3): 135 nM
Emax (n = 3, read-out: Emax): 96.2 ± 2.3%
Substance: TSGPLGNLAEELNGYSRKKGGFSFRF-NH2 [QRFP26]

Reference: publication PMC11187126, “Structure and dynamics of the pyroglutamylated RF-amide peptide QRFP receptor GPR103” (Nature Communications, 2024)
